# Measured values taken from patent US20230303478A1, “PROCESS FOR PREPARING CARBOXYLIC ACID ESTERS OF HYDROXYBUTANOATES” (IOI Oleo GmbH, priority 2020, published 2023).
# Assays:
# [1] = Cleavage (in-vitro digestion) experiments in FaSSGF medium, which simulates the stomach; format: in vitro ADME; conditions: cleavage experiments in FaSSGF or FaSSIF medium; stepwise release, retardation effect
# From the text: By means of cleavage experiments it is shown that carboxylic acid esters of 3-hydroxybutanoate produced according to the invention or mixtures thereof (cf. previously described experiments according to I., II. and III.), including reaction by-products such as dimers, etc., can be cleaved in the human gastrointestinal tract.
# In each case, purified reaction products obtained by the inventive method are used as starting mixtures (i.e. tartaric acid ester of 3-hydroxybutanoate, lactic acid ester of 3-hydroxybutanoate, succinic acid ester of 3-hydroxybutanoate, citric acid ester of 3-hydroxybutanoate, maleic acid ester of 3-hydroxybutanoate, fumaric acid ester of 3-hydroxybutanoate, malic acid ester of 3-hydroxybutanoate and adipic acid ester of 3-hydroxybutanoate).
# For the cleavage experiments under near-body conditions two media are investigated: • FaSSGF, which simulates the stomach • FaSSIF, which simulates the intestinal tract
# Both media are from the company Biorelevant®, Ltd. in Great Britain. In addition, in some experiments porcine pancreas is added (Panzytrat® 40,000, Fa. Allergan).
# Under FaSSIF conditions, a lower conversion using Panzytrat® takes place.
# Accordingly, the cleavage experiments of dicarboxylic acid esters of 3-hydroxybutanoates also proceed in a cascade. Thus, a retardation effect is present overall.
# [2] = even if several grams are taken; patients; cited from earlier work
course of the cleavage of 3-hydroxybutanoate [1],Structure (SMILES),duration of ketosis [2]
proceeds in a cascade,"CCOC(=O)CC(C)OC(=O)CC(O)(CC(=O)OC(C)CC(=O)OCC)C(=O)OC(C)CC(=O)OCC (centres unmarked) [1,2,3-tris-(4-ethoxy-4-oxobutan-2yl)-2-hydroxypropane-1,2,3-tricarboxylate]",
,CC(O)CC(=O)O (centres unmarked) [3-hydroxybutyric acid],about three to four
